The structures appear in SMILES notation.

This is an account of results in ChEMBL document CHEMBL4196134, “Enantiomeric Pairs of Meroterpenoids with Diverse Heterocyclic Systems from Rhododendron nyingchiense” (J Nat Prod, 2018).

The target in the assay is T1, Tyrosine-protein phosphatase non-receptor type 1 (Homo sapiens, UniProt P18031).
T1 sequence (P18031 whole entry): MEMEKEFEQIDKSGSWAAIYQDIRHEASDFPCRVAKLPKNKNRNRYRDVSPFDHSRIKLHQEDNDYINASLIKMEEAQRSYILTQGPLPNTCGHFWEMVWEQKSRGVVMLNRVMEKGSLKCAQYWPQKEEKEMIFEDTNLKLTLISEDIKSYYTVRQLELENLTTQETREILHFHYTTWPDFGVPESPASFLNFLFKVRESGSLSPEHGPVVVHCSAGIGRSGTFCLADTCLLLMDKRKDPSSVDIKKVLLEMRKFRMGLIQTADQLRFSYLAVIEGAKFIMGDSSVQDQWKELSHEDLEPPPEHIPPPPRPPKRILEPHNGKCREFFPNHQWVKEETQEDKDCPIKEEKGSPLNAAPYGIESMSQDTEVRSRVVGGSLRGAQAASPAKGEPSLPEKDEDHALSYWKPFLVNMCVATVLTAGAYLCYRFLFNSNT
The assay is described as follows: Inhibition of recombinant human PTP1B catalytic domain ([…]) expressed in Escherichia coli BL21-codon plus (DE3) using pNPP as substrate measured continuously for 3 mins by colorimetric method.
Regarding `C=C(C)[C@H]1CC[C@@]2(C)Oc3cc(O)cc(C)c3[C@@H]1[C@@H]2O`, the IC50 (as a rule, the concentration that inhibits the measured activity by half) worked out at 29 µM. On to `CC1=CC(=O)C=C2O[C@@]3(C)CC[C@H](C(C)(C)O)[C@H]3[C@H]3O[C@@]123`, for which the half-maximal inhibitory concentration (IC50) was found to be 38.1 µM. In the case of `CC(C)=CCC/C(C)=C/CC/C(C)=C/Cc1c(O)cc(C)cc1O` [GRIFOLIN], the half-maximal inhibitory concentration (IC50) is 5.7 µM.

Take `Cc1cc(O)cc2c1[C@H]1[C@@H]3[C@@H](CC[C@]3(C)O2)C1(C)C`: the half-maximal inhibitory concentration (IC50) stood at 58.2 µM. Then `C=C(C)[C@@H]1CC[C@]2(C)Oc3cc(O)cc(C)c3C[C@H]12`, with 61 µM; and `C=C(C)[C@@H]1CC[C@]2(C)Oc3cc(O)cc(C)c3[C@H]1[C@H]2O`, with 48.1 µM; and `Cc1cc(O)cc2c1O[C@H]1OC(C)(C)[C@@H]3CC[C@@](C)(O2)[C@@H]13`, with 43.6 µM.
